According to patent US10836769B2, “Substituted pyrrolizine compounds and uses thereof” (Gilead Sciences, Inc., priority 2018, dated 2020):
Values after ≈ are worked out from the molar mass of the structure shown. Where two headings read alike, the source gives them in different places.

Legend:
HBV = HBV DNA Quantification Assay; format: cell-based
Protocol: A HepG2 cell line overexpressing the HBV virus attachment receptor sodium-taurocholate cotransporting polypeptide (NTCP) was grown to confluency in DMEM growth medium, Dulbecco's Modified Eagle Medium without sodium pyruvate (Life Technologies, Rockville, Md.) supplemented with 10% FBS (Thermo Scientific, Waltham, Md.), 1% penicillin/streptomycin (Life Technologies, Rockville, Md.) and 2 mM L-glutamine (Life Technologies, Rockville, Md.) in T175 flasks. Cells were infected with HBV AD38 viral particles (Texcell, Frederick, USA) at 4000 genome equivalents per cell. After allowing viral infection to take place for 4 days, the infected cells were harvested from the flasks by trypsinization, washed twice with OptiMEM (Life Technologies, Rockville, Md.) and re-suspended in DMEM containing 2% FBS and 1% DMSO at a density of 0.25E6 cells/ml. Infected cells were seeded on 384 well collagen coated plates (Greiner, Austria) at a density of 20,000 cells/well containing serially diluted compounds of the present disclosure or DMSO (0.5%) in a final volume of 80 μl. The assay plates were incubated for a period of 5 days and the antiviral activity of the test compounds were assayed by detecting the presence of HBV DNA in the culture supernatant using the QuantiGene™ 2.0 nucleic acid quantification kit (Affymetrix, Santa Clara, Calif.).
The culture supernatant was harvested and treated with lysis buffer containing Proteinase K (Affymetrix, Santa Clara, Calif.). The supernatant was incubated with HBV viral DNA specific probes (Affymetrix, Santa Clara, Calif.) for 30 minutes at 55° C. This was followed by addition of 0.2M NaOH for 30 minutes at room temperature to denature the DNA, followed by addition of Neutralization buffer (Affymetrix, Santa Clara, Calif.). The resulting lysed and neutralized supernatant was then added to QuantiGene™ 2.0 384 well plates coated with capture oligonucleotides and incubated overnight at 55° C. The HBV specific probe set consists of Capture Extender oligonucleotides (CE's) and blocking probes. Following the overnight incubation, the wells were incubated for one hour sequentially with a Pre-Amplifier, Amplifier and Labeled probes conjugated to alkaline phosphatase with a wash step between incubations. After the final wash step, the alkaline phosphatase substrate (Luminol APS5) was added and the resulting luminescence signal was read in an EnVision Multilabel Plate Reader (PerkinElmer, Santa Clara, Calif.). The EC50 values were calculated from the fit of the dose-response curves to a four-parameter equation. All EC50 values represent geometric mean values of a minimum of four determinations.

Kinetic Solubility = format: physicochemical; details: 0.2 to 100 μM, BD Gentest Solubility Scanner
Protocol: The 10 mM DMSO stock solution of the test compound is serially diluted into a 96-well “DMSO stock dilution plate”. Then Pipette 2 μL from the DMSO stock dilution plate into the “Sample plate” and dilute with 198 µL of the assay media to generate the final concentrations of the test compound ranging from 0.2 to 100 μM. The “Sample plate” is run on a BD Gentest Solubility Scanner.

[1] = Hepatitis B virus, 120 h, HepG2 cell line overexpressing NTCP infected with HBV AD38 viral particles, HBV DNA in culture supernatant after 5 days, geometric mean of a minimum of four determinations, read-out: EC50
[2] = aqueous buffer, kinetic from dmso stock, pH = 7, read-out: Kinetic Solubility at pH = 7
[3] = simulated gastric fluid, kinetic from dmso stock, pH = 1, read-out: Kinetic Solubility at pH = 1

SMILES | EC50 (HBV; [1]) [nM] | solubility kinetic (Kinetic Solubility; [2]) [µM] | solubility kinetic (Kinetic Solubility; [3]) [µM] | other results
Cc1c(C(=O)Nc2ccc(F)c(F)c2)c2n(c1C(=O)C(=O)NC1(c3c[nH]nn3)CC(F)(F)C1)CCC2 [Example 39] | 2.9 | 66.8 (≈ 33.7 µg/mL) | 66 (≈ 33.3 µg/mL) | –
Cc1c(C(=O)Nc2ccc(F)c(F)c2)c2n(c1C(=O)C(=O)NC1(c3cnn[nH]3)CC(F)(F)C1)C[C@@H]1C[C@H]21 [Example 21] | 3.9 | 57.6 (≈ 29.7 µg/mL) | 64.7 (≈ 33.4 µg/mL) | –
CNC(=O)C1(NC(=O)C(=O)c2c(C)c(C(=O)Nc3ccc(F)cc3)c3n2CCC3)CC(F)(F)C1 [Example 45, 5-(2-((3,3-difluoro-1-(methylcarbamoyl)cyclobutyl)amino)-2-oxoacetyl)-N-(4-fluorophenyl)-6-methyl-2,3-dihydro-1H-pyrrolizine-7-carboxamide] | 55.9 | 95.3 (≈ 45.4 µg/mL) | 99.9 (≈ 47.6 µg/mL) | –
O=C(NC1(c2c[nH]nn2)CC(F)(F)C1)C(=O)c1c(Cl)c(C(=O)Nc2ccc(F)c(C(F)F)c2)c2n1CCC2 [Example 55, 6-chloro-5-(2-((3,3-difluoro-1-(1H-1,2,3-triazol-4-yl)cyclobutyl)amino)-2-oxoacetyl)-N-(3-(difluoromethyl)-4-fluorophenyl)-2,3-dihydro-1H-pyrrolizine-7-carboxamide] | 3 | – | – | –
Cc1c(C(=O)Nc2ccc(F)c(F)c2)c2n(c1C(=O)C(=O)NC1(c3cnn[nH]3)CC(F)(F)C1)[C@H]1C[C@H]1C2 [Example 23, (1aS,6aS)-3-(2-((3,3-difluoro-1-(1H-1,2,3-triazol-5-yl)cyclobutyl)amino)-2-oxoacetyl)-N-(3,4-difluorophenyl)-4-methyl-1,1a,6,6a-tetrahydrocyclopropa[a]pyrrolizine-5-carboxamide] | 31.8 | 49.4 (≈ 25.5 µg/mL) | 62 (≈ 32 µg/mL) | –
COCc1cc(NC(=O)c2c(C)c(C(=O)C(=O)NC3(c4nncs4)CC(F)(F)C3)n3c2CCC3)ccc1F [Example 50] | 33.4 | – | – | –
CNC(=O)C1(NC(=O)C(=O)c2c(C)c(C(=O)Nc3ccc(F)c(F)c3)c3n2[C@H]2C[C@H]2C3)CC(F)(F)C1 [Example 24] | 177 | 87.1 (≈ 44.1 µg/mL) | 99.4 (≈ 50.3 µg/mL) | –
CNC(=O)C1(NC(=O)C(=O)c2c(C)c(C(=O)Nc3ccc(F)c(F)c3)c3n2C[C@@H]2C[C@H]32)CC(F)(F)C1 [Example 22, (1aR,6bS)-4-(2-((3,3-difluoro-1-(methylcarbamoyl)cyclobutyl)amino)-2-oxoacetyl)-N-(3,4-difluorophenyl)-5-methyl-1,1a,2,6b-tetrahydrocyclopropa[a]pyrrolizine-6-carboxamide] | 31.5 | > 100 | > 100 | –
Cc1c(C(=O)Nc2ccc(F)c(F)c2)c2n(c1C(=O)C(=O)NC1(c3cn(C)nn3)CC(F)(F)C1)CCC2 [Example 6, 5-(2-((3,3-difluoro-1-(1-methyl-1H-1,2,3-triazol-4-yl)cyclobutyl)amino)-2-oxoacetyl)-N-(3,4-difluorophenyl)-6-methyl-2,3-dihydro-1H-pyrrolizine-7-carboxamide] | 14 | 44.8 (≈ 23.2 µg/mL) | 46.1 (≈ 23.9 µg/mL) | –
Cc1c(C(=O)Nc2ccc(F)cc2)c2n(c1C(=O)C(=O)NC1(c3cnn(C)n3)CC(F)(F)C1)CCC2 [Example 9, 5-(2-((3,3-difluoro-14(2-methyl-2H-1,2,3-triazol-4-yl)cyclobutyl)amino)-2-oxoacetyl)-N-4(4-fluorophenyl)-6-methyl-2,3-dihydro-1H-pyrrolizine-7-carboxamide] | – | – | – | EC50 (HBV; HepG2 cell line overexpressing NTCP infected with HBV AD38 viral particles, HBV DNA in culture supernatant after 5 days, geometric mean of a minimum of four determinations, read-out: EC50): 5.8 nM; solubility kinetic (Kinetic Solubility; pH = 1, read-out: Kinetic Solubility at pH = 1): 2.8 µM (≈ 1.4 µg/mL); solubility kinetic (Kinetic Solubility; pH = 7, read-out: Kinetic Solubility at pH = 7): 2.3 µM (≈ 1.15 µg/mL)
Cc1c(C(=O)Nc2ccc(F)c(C(F)F)c2)c2n(c1C(=O)C(=O)NC1(c3c[nH]nn3)CC(F)(F)C1)CCC2 [Example 37, 5-(2-((3,3-Difluoro-1-(1H-1,2,3-triazol-4-yl)cyclobutyl)amino)-2-oxoacetyl)-N-(3-(difluoromethyl)-4-fluorophenyl)-6-methyl-2,3-dihydro-1H-pyrrolizine-7-carboxamide] | 3.6 | 5.2 (≈ 2.79 µg/mL) | 7.1 (≈ 3.81 µg/mL) | –
Cc1c(C(=O)Nc2ccc(F)c(F)c2)c2n(c1C(=O)C(=O)NC1(c3c[nH]nn3)CC1)CCC2 [Example 40, 5-(2-((1-(1H-1,2,3-triazol-4-yl)cyclopropyl)amino)-2-oxoacetyl)-N-(3,4-difluorophenyl)-6-methyl-2,3-dihydro-1H-pyrrolizine-7-carboxamide] | 14.7 | 2.9 (≈ 1.32 µg/mL) | 4.9 (≈ 2.23 µg/mL) | –
Cc1c(C(=O)Nc2ccc(F)c(F)c2)c2n(c1C(=O)C(=O)N[C@](C)(C(N)=O)C(F)(F)F)CCC2 [Example 47, (R)-5-(2-((3-amino-1,1,1-trifluoro-2-methyl-3-oxopropan-2-yl)amino)-2-oxoacetyl)-N-(3,4-difluorophenyl)-6-methyl-2,3-dihydro-1H-pyrrolizine-7-carboxamide] | 54.1 | – | – | –
Cc1c(C(=O)Nc2ccc(F)c(F)c2)c2n(c1C(=O)C(=O)NC1(c3cn(C[Si](C)(C)C)nn3)CC1)CCC2 [Example 12] | – | – | – | EC50 (HBV; Hepatitis B virus, HepG2, 120 h): 93.6 nM
O=C(NC1(c2c[nH]nn2)CC(F)(F)C1)C(=O)c1c(Cl)c(C(=O)Nc2ccc(F)c(F)c2)c2n1CCC2 [Example 54, 6-chloro-5-(2-((3,3-difluoro-1-(1H-1,2,3-triazol-4-yl)cyclobutyl)amino)-2-oxoacetyl)-N-(3,4-difluorophenyl)-2,3-dihydro-1H-pyrrolizine-7-carboxamide] | 1.6 | – | – | –
O=C(NC1(c2nncs2)CC1)C(=O)c1c(Cl)c(C(=O)Nc2ccc(F)c(F)c2)c2n1CCC2 [Example 52, 5-(2-((1-(1,3,4-thiadiazol-2-yl)cyclopropyl)amino)-2-oxoacetyl)-6-chloro-N-(3,4-difluorophenyl)-2,3-dihydro-1H-pyrrolizine-7-carboxamide] | 11 | – | – | –
Cc1c(C(=O)Nc2ccc(F)c(F)c2)c2n(c1C(=O)C(=O)N[C@@](C)(C(N)=O)C(F)(F)F)CCC2 [Example 48, (S)-5-(2-((3-amino-1,1,1-trifluoro-2-methyl-3-oxopropan-2-yl)amino)-2-oxoacetyl)-N-(3,4-difluorophenyl)-6-methyl-2,3-dihydro-1H-pyrrolizine-7-carboxamide] | 63.9 | – | – | –
O=C(NC1(c2c[nH]nn2)CC1)C(=O)c1c(Cl)c(C(=O)Nc2ccc(F)c(F)c2)c2n1CCC2 [Example 53, 5-(2-((1-(1H-1,2,3-triazol-4-yl)cyclopropyl)amino)-2-oxoacetyl)-6-chloro-N-(3,4-difluorophenyl)-2,3-dihydro-1H-pyrrolizine-7-carboxamide] | 6.9 | – | – | –
Cc1c(C(=O)Nc2ccc(F)cc2)c2n(c1C(=O)C(=O)NC1(c3cnnn3C)CC(F)(F)C1)CCC2 [Example 7, 5-(2-((3,3-difluoro-1-(1-methyl-1H-1,2,3-triazol-5-yl)cyclobutyl)amino)-2-oxoacetyl)-N-(4-fluorophenyl)-6-methyl-2,3-dihydro-1H-pyrrolizine-7-carboxamide] | 17.9 | – | – | –
Cc1c(C(=O)Nc2ccc(F)c(C(F)F)c2)c2n(c1C(=O)C(=O)NC1(c3nncs3)CC(F)(F)C1)CCC2 [Example 49, 5-(2-((3,3-difluoro-1-(1,3,4-thiadiazol-2-yl)cyclobutyl)amino)-2-oxoacetyl)-N-(3-(difluoromethyl)-4-fluorophenyl)-6-methyl-2,3-dihydro-1H-pyrrolizine-7-carboxamide] | 3.2 | – | – | –
COCc1cc(NC(=O)c2c(C)c(C(=O)C(=O)NC3(c4c[nH]nn4)CC(F)(F)C3)n3c2CCC3)ccc1F [Example 51] | 45 | – | – | –
O=C(NC1(c2c[nH]nn2)CC1)C(=O)c1c(Cl)c(C(=O)Nc2ccc(F)c(C(F)F)c2)c2n1CCC2 [Example 56] | 30.2 | – | – | –
